Read-outs that look alike come from different tables or passages of the source.
Tests used:
JIMT-1 [1] = experiment: MTS cell viability assay, 48 h; type: cell-based, human; conditions: Homo sapiens; JIMT-1, 48 h, MTS; read-out: CC50
Protocol: (§1) The cells were incubated with increasing concentrations of the compounds (0–30 µM) for 48 h followed by assessment of cell viability using the MTS assay. […] This compound carries a primary amino group at the sn-3 position of the glycerolipid and L-rhamno sugar at the sn-2 position via an α-rhamnosidic linkage.
(§2) The cell lines were cultured from frozen stocks originally obtained from ATCC (Manassas, VA, USA). MDA-MB-231, JIMT-1, DU145, MDA-MB-468, Hs578t and MDA-MB-453 were grown in DMEM medium supplemented with 10% FBS. BT-474 cells were grown in DMEM/F12 medium supplemented with 10% FBS. MiaPaCa2 was cultured in DMEM supplemented with 10% FBS and 2.5% horse serum. All the media contained penicillin/streptomycin. U-251 and U-87 in Eagle MEM supplemented by 10% FBS, 1% Non-essential amino acids, 1 mM sodium pyruvate and 2 mM glutamine. BT-549 was cultured in RPMI 1640 medium supplemented with 10% FBS.
(§3) The effects of the GAELs on the viability of the epithelial cancer cell lines were determined as previously described. Briefly, equal numbers of the cells were dispersed into 96-well plates. After 24 h, the cells were incubated with the compounds (0–30 µM) for 48 h. MTS reagent [3-(4,5-dimethylthiazol-2-yl)-5-(3-carboxymethoxyphenyl)-2-(4-sulfophenyl)-2H-tetrazolium, inner salt; Promega, Madison, WI, USA] (20% v/v) was subsequently added and the plates were incubated for 1–4 h in a CO2 incubator followed by measurement of the medium at OD490 with a plate reader (Molecular Devices). Wells with media but no cells were treated in similar fashion and the values utilized as blank.

PC-3 = experiment: MTS cell viability assay, 48 h; type: cell-based, human; conditions: Homo sapiens; PC-3, 48 h, MTS; read-out: CC50
Protocol: as §1, §3

[2] = test system: human epithelial cancer cell lines: breast (MDA-MB-231, JIMT-1), pancreas (MiaPaCa2) and prostate (DU-145, PC-3); experiment: MTS cell viability assay, 48 h, across the panel of cell lines; type: cell-based; conditions: 48 h, 48 h, MTS; for CC50: range or bound over all cell lines, read-out: CC50 values across the cell lines
Protocol: as §1, §2, §3

[3] = test system: BT474 (hormone receptor positive breast cancer cells); experiment: MTS cell viability assay, 48 h; type: cell-based; conditions: Homo sapiens, BT-474
Protocol: (§4) Concentrations of compound 3 between 6–15 µM were sufficient to kill all the triple negative cell lines with the exception of MDA-MB-453 where viability was inhibited by 60% at the highest concentration tested. 30 µM of 3 was required for complete loss of viability of the hormone sensitive breast cancer BT474 cell line.
as §2
(§5) The effects of the GAELs on the viability of the epithelial cancer cell lines were determined as previously described. Briefly, equal numbers of the cells were dispersed into 96-well plates. After 24 h, the cells were incubated with the compounds (0–30 µM) for 48 h. […] (20% v/v) was subsequently added and the plates were incubated for 1–4 h in a CO2 incubator followed by measurement of the medium at OD490 with a plate reader (Molecular Devices). […]

[4] = test system: BT549, MDA-MB-453, MDA-MB-468, and Hs578t (triple negative breast cancer lines); experiment: MTS cell viability assay, 48 h, triple negative breast cancer lines; type: cell-based, human; conditions: with the exception of MDA-MB-453
Protocol: as §4, §2, §5

DU-145 = experiment: Cell membrane integrity, ethidium homodimer-1 (EthD-1) staining; type: cell-based; conditions: DU-145, 10 µM, 4–6 h
Protocol: (§6) After determining that the mechanism of cell death of compound 3 is independent of caspases-mediated apoptosis, we evaluated if cell death was due to membrane disruption or lysis using the cell impermeant ethidium homodimer-1 (EthD-1) dye that emits red fluorescence upon binding to DNA [13, 14]. DU-145 and JIMT-1 were treated with compound 3 at 10 and 15 µM, respectively. After 4–6 h, the cells were treated with EthD-1 dye and monitored under fluorescence microscopy.
(§7) Equal numbers of JIMT-1 and DU145 cells were dispersed into 96-well plates. After 24 h the cells were incubated with varying concentration of compounds 3 or 4 (4–6 µM) for 5–6 h. Subsequently, 2 µM of the cell membrane impermeant dye, ethidium homodimer-1 (EthD-1 (Molecular Probes, Eugene, OR, USA) that emits red fluorescence upon binding to DNA was added and the cells analysed by fluorescence microscopy. EthD-1 staining was compared to negative controls with no treatment and positive control treated with 0.01% Triton X-100 for 10 min.
(§8) Figure 5 Evaluation of effect of compound 3 on cell membrane of DU-145 and JIMT-1 cell lines using cell impermeant ethidium homodimer-1 (EthD-1) dye that emits red fluorescence upon binding to DNA.

JIMT-1 [5] = experiment: as above; type: cell-based; conditions: JIMT-1, 15 µM, 4–6 h
Protocol: as §6, §7, §8

Hemolytic assay = type: cell-based; conditions: sheep, ovine erythrocytes (washed suspension), pH 7.4, relative to 1% ammonium hydroxide = 100%, read-out: Highest hemolysis observed
Protocol: To further evaluate the membrane lytic properties of compound 3, we investigated its capacity to lyse ovine erythrocytes. The highest hemolysis observed with compound 3 was about 6.6% at 100 µM compared to the 1% ammonium hydroxide positive control (Figure 6).
The hemolytic activity of the GAEL analogs was evaluated using ovine erythrocyte. Sheep whole blood was collected from a slaughter house into a vessel containing disodium EDTA ([…]) in a buffered saline (10 mM Tris, 150 mM NaCl, pH 7.4). The erythrocytes were prepared and washed with buffered saline as previously reported. For the assay, the erythrocyte suspension, varying amounts of the GAEL drugs or vehicle were pipetted into 1.5 mL microcentrifuge tubes to give a final volume of 1500 µL and cell density of 2.5 × 10^8 cells/mL. The suspensions were incubated with gentle shaking in Eppendorf thermomixer for 30 min. […] 200 µL of the supernatant was dissolved in 1800 µL of 0.5% NH4OH and the optical density (OD) was recorded using 1 mL cuvette at 540 nm in a spectrophotometer. […] The % hemolysis was calculated using the optical density (OD) values as shown below in Equation (1):% hemolysis = (X − 0%)/(100% − 0%)(1) where X is the OD values of the drug(s) at varying concentration.
Figure 6 Hemolytic properties of GAEL 3 using freshly isolated ovine erythrocytes. […] The values were determined as % of control.

In the case of `CCCCCCCCCCCCCCCCOCC(CN)OC1OC(C)C(O)C(O)C1O` [Compound 3, 3-Amino-1-O-hexadecyloxy-2R-(O–α-L-rhamnopyranosyl)-sn-glycerol], the CC50 (JIMT-1 [1]) is reported as 5.5 µM, the CC50 (PC-3) is reported as 11 µM and the CC50 ([2]; Homo sapiens) is reported as 4.8 to 14 µM. The “Concentration range giving greater than 90% loss of cell viability” value ([2]; all the cell lines) was 7.5 to 15.0 µM, the CC50 [2] was 4.8 to 11 µM and the CC50 [3] was 14 µM. For the same molecule, the “Concentrations sufficient to kill all the triple negative cell lines” value [4] was 6 to 15 µM, the “Cell membrane lysis (EthD-1 staining)” value (DU-145) was “no significant cell membrane lysis” and the “Cell membrane lysis (EthD-1 staining)” value (JIMT-1 [5]) was “no significant cell membrane lysis”. It also gave a hemolysis at 30 min, 100 µM (Hemolytic assay) of about 6.6%.
